Test results reported in patent US20030180797A1, “Identification of ligands for a receptor family and related methods” (priority 2002, published 2003).
“And” between values parts separate entries of the source, which are not always exact repeats. Equal entries are not always repeated.

Key:
Type in all cases: biochemical
[1] = biological target: T1, E. coli DHPR enzyme (Escherichia coli, UniProt P04036); assay: Dihydrodipicolinate reductase (DHPR) kinetic spectrophotometric assay, NADPH oxidation at 340 nm; conditions: for IC50: bi-ligands and pyridine dicarboxylate derivatives, Example VII, FIG. 8
Method: DHPR was diluted in 10 mM HEPES, pH 7.4. Dihydrodipicolinate synthase (DHPS) was not diluted and was stored in eppendorf tubes.
The L-aspartate semialdehyde (L-ASA) solution was prepared in the following manner. A 180 μM stock solution of ASA was prepared. 100 μl of the ASA stock solution was mixed with 150 μl of concentrated NaHCO3 and 375 μl of H2O. […] The L-ASA stock solution was kept at a temperature of −20° C. After dilution, the pH of the 28.8 mM solution was checked and maintained between pH 1 to 2.
The solution for background detection was a 945 μl solution containing 0.1 M HEPES, pH 7.8, 1 mM pyruvate, 6 μM NADPH, 40 μM L-ASA, and 7 μl of 1 mg/ml DHPS at 25° C. in the volumes indicated above. The sample solution was then mixed and incubated for 10 minutes. Inhibitor solutions (500 nM or 100 μM final concentration) and enough dimethylsulfoxide (DMSO) to provide a final DMSO concentration of 5% were added. The solution was mixed and incubated for an additional 6 minutes.
In DHPR samples, the DHPR stock solution was diluted and 5 μl of diluted E. coli DHPR enzyme (1:1000 dilution of 1 mg/ml stock) were added. The sample was mixed for 20 seconds, and then the reaction was run for […]. […] Reading of the samples was continued until 300 seconds.
For assaying bi-ligands, the substrate concentration and the NADPH or NADH concentration were kept near their Km values. […] If substrate mimics (specificity ligands) were tested, the NADPH or NADH concentration was increased.

[2] = biological target: T1, E. coli DHPR enzyme; assay: as above; conditions: read-out: inhibition of DHPR activity
[3] = biological target: T2, human DHFR (Homo sapiens, UniProt P00374); assay: Dihydrofolate reductase (DHFR) kinetic spectrophotometric assay; conditions: Cibacron Blue at 3 μM; read-out: inhibition of DHFR, positive control
T2 sequence (P00374 1-187): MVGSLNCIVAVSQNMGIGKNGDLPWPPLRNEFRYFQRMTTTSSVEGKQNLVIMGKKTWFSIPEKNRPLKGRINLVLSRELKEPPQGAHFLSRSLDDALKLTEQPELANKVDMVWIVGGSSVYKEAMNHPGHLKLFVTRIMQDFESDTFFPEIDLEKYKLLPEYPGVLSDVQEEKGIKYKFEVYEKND
Method: H2 folate was dissolved in DMSO to about 10 mM and then diluted with water to a concentration of 0.1 mM.
Inhibitor solutions were prepared in DMSO so that, when diluted, the inhibitor concentration was 100 μM and the final DMSO concentration was adjusted to 5%. […] The reaction was then initiated with 8 μl of human DHFR (0.047 mg/ml; 1:85 dilution of 4 mg/ml stock solution). After the enzyme was added, the reaction was run for 10 minutes.
(§1) When bi-ligands were screened, the substrate concentration and NADPH or NADH concentrations were kept near their Km values. When assaying common ligands (CLMs), the substrate concentration was increased to at least 10 times the Km. If the compounds assayed were specificity ligands (substrate mimics), the NAPDH or NADH concentration was increased.

[4] = biological target: T3, LDH from Rabbit Muscle (Oryctolagus cuniculus, UniProt P13491); assay: Lactate dehydrogenase (LDH) kinetic spectrophotometric assay, NADH oxidation; conditions: Cibacron Blue at 10.3 mM; read-out: inhibition of LDH, positive control
T3 construct: 10 μl of diluted LDH from Rabbit Muscle; from tissue; host or cells: rabbit muscle
Method: [table] […] These solutions were incubated for 6 minutes at 25° C. in 990 μl of a solution containing 0.1 M HEPES, pH 7.4, […], and 2.5 mM of pyruvate. The reaction was then initiated with 10 μl of diluted LDH from Rabbit Muscle (0.5 μg/ml; 1:2000 dilution of 1.0 mg/ml stock solution). […] Reading of the samples was continued until 300 seconds. […] When bi-ligands were screened, the substrate concentration and NADPH or NADH concentrations were kept near their Km values. […] If the compounds assayed were specificity ligands (substrate mimics), the NAPDH or NADH concentration was increased.

[5] = biological target: T4, ADH from Bakers Yeast (Saccharomyces cerevisiae, UniProt P00330); assay: Alcohol dehydrogenase (ADH) kinetic spectrophotometric assay, NAD+ reduction; conditions: Cibacron Blue at 15.5 μM; read-out: inhibition of ADH, positive control
T4 sequence (P00330 1-348): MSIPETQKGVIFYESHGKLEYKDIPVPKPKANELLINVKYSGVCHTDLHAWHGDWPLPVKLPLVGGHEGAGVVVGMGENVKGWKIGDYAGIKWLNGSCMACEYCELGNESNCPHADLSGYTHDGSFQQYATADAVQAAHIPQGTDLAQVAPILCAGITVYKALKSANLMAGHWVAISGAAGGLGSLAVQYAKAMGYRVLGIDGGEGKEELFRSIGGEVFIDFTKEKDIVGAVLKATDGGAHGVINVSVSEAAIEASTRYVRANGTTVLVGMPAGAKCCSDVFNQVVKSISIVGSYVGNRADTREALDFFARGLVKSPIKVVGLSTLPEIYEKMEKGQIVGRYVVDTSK
Method: Inhibitor solutions were prepared in DMSO so that, when diluted, the inhibitor concentration was 100 μM and the final DMSO concentration was adjusted to 5%. […] The reaction was then initiated with 10 μl of ADH from Bakers Yeast (Saccharomyces cerevisiae) (3.3 μg/ml; 1:400 dilution of 1.0 mg/ml). […] Reading of the samples was continued until 300 seconds.
Where only a simple read was desired, as in the case of NAD+ concentration determination, 13 μl (10 M stock) of ethanol was used to drive the reaction, and 10 μl of pure enzyme (1 mg/ml) was used. NAD+ was soluble at 2 mM. In this situation, the procedure was as follows. All of the ingredients except for the enzyme were mixed together. The solution was mixed well and the absorbance at 340 nm read. The enzyme was added and read again at OD 340 after the absorbance stopped changing, generally 10 to 15 minutes after the enzyme was added.

[6] = biological target: DOXP reductoisomerase from E. coli (Escherichia coli, UniProt P45568); assay: 1-Deoxy-D-xylulose-5-phosphate reductoisomerase (DOXPR) kinetic spectrophotometric assay, NADPH oxidation; conditions: Cibacron Blue at 10.32 μM; read-out: inhibition of DOXPR, positive control
Method: DOXPR was diluted in 10 mM HEPES, pH 7.4.
Solutions of the inhibitors in DMSO were prepared to provide a final DMSO concentration of 5%. […] 1.15 mM DOXP, and 8 μM NADPH. The reaction was then initiated with 10 μl of DOXP reductoisomerase (also known as DOXP reductase) from E. coli (10 μg/ml; 1:200 diilution of 2 mg/ml stock solution).
as §1

T1 sequence (P04036 whole entry): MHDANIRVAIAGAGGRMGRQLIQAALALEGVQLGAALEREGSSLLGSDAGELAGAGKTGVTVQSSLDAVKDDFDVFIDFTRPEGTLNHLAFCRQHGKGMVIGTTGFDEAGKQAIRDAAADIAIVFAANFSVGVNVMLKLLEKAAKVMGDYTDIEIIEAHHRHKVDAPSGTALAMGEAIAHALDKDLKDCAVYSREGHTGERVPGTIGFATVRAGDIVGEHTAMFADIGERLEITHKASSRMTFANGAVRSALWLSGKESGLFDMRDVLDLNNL
DOXP reductoisomerase from E. coli, sequence (P45568 whole entry): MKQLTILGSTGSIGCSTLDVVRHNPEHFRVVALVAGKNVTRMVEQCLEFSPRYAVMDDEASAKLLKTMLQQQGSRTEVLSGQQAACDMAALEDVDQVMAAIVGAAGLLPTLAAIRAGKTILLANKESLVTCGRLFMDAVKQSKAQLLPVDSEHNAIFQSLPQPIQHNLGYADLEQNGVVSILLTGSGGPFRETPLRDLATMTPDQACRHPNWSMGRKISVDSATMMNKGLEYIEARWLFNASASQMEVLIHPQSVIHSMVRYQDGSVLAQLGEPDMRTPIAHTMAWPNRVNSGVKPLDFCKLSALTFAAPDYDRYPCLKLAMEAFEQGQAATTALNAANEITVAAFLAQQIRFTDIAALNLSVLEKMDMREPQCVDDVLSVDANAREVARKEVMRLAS

Row | SMILES | IC50 [1] | other results
1 | O=C1NC(=S)SC1=Cc1ccc(-c2ccc(C(=O)NCCSc3cc(C(=O)O)nc(C(=O)O)c3)cc2)o1 [compound 12b, 4-(2-{4-[5-(4-oxo-2-thioxo-thiazolidin-5-ylidenemethyl)-furan-2-yl]-benzoylamino}-ethylsulfanyl)-pyridine-2,6-dicarboxylic acid] | ~7.1 µM | 
2 | O=C(NCCSc1cc(C(=O)O)nc(C(=O)O)c1)c1ccc(-c2ccc(-c3nc4cc([N+](=O)[O-])ccc4[nH]3)o2)cc1 [compound 21a, 4-(2-{4-[5-(5-nitro-1H-benzoimidazol-2-yl)-furan-2-yl]-benzoylamino}-ethylsulfanyl)-pyridine-2,6-dicarboxylic acid] | ~0.758 µM | 
3 | CC(=O)NCCSc1cc(C(=O)O)nc(C(=O)O)c1 [compound 22, 4-(2-acetylamino-ethylsulfanyl)-pyridine-2,6-dicarboxylic acid] |  | inhibition at 800 µM [2]: ~31%
4 | N=C1NC(=O)C(=Cc2ccc(C(=O)NCCSc3cc(C(=O)O)nc(C(=O)O)c3)cc2)S1 [compound 16c, 4-{2-[4-(2-imino-4-oxo-thiazolidin-5-ylidenemethyl)-benzoylamino]-ethylsulfanyl}-pyridine-2,6-dicarboxylic acid] | ~33 µM | 
5 | N=C1NC(=O)C(=Cc2cccc(C(=O)NCCSc3cc(C(=O)O)nc(C(=O)O)c3)c2)S1 [compound 16b, 4-{2-[3-(2-imino-4-oxo-thiazolidin-5-ylidenemethyl)-benzoylamino]-ethylsulfanyl}-pyridine-2,6-dicarboxylic acid] | ~1.02 µM | 
6 | O=C(NCCSc1cc(C(=O)O)nc(C(=O)O)c1)c1ccccc1 [compound 23, 4-(2-benzoylamino-ethylsulfanyl)-pyridine-2,6-dicarboxylic acid] | 78.3 µM | 
7 | O=C1NC(=O)C(=Cc2ccc(-c3cccc(C(=O)NCCSc4cc(C(=O)O)nc(C(=O)O)c4)c3)o2)S1 [compound 12c, 4-(2-{3-[5-(2,4-dioxo-thiazolidin-5-ylidenemethyl)-furan-2-yl]-benzoylamino}-ethylsulfanyl)-pyridine-2,6-dicarboxylic acid] | ~13 µM | 
8 | O=C1NC(=O)C(=Cc2ccc(-c3ccc(C(=O)NCCSc4cc(C(=O)O)nc(C(=O)O)c4)cc3)o2)S1 [compound 12a, 4-(2-{4-[5-(2,4-dioxo-thiazolidin-5-ylidenemethyl)-furan-2-yl]-benzoylamino}-ethylsufanyl)-pyridine-2,6-dicarboxylic acid] | ~0.536 µM | 
9 | O=C1NC(=O)C(=Cc2ccc(-c3ccc(O)c(C(=O)NCCSc4cc(C(=O)O)nc(C(=O)O)c4)c3)o2)S1 [compound 12f, 4-(2-{5-[5-(2,4-dioxo-thiazolidin-5-ylidenemethyl)-furan-2-yl]-2-hydroxy-benzoylamino}-ethylsulfanyl)-pyridine-2,6-dicarboxylic acid] | ~4.91 µM | 
10 | O=C(O)c1cc(SCCNC(=O)c2cc3cccc(O)c3cc2O)cc(C(=O)O)n1 [compound 24, 4-{2-[(3,5-dihydroxy-naphthalene-2-carbonyl)-amino]-ethylsulfanyl}-pyridine-2,6-dicarboxylic acid] | 2 µM | 
11 | O=C1NC(=S)SC1=Cc1ccc(-c2cccc(C(=O)NCCSc3cc(C(=O)O)nc(C(=O)O)c3)c2)o1 [compound 12d, 4-(2-{3-[5-(4-oxo-2-thioxo-thiazolidin-5-ylidenemethyl)-furan-2-yl]-benzoylamino}-ethylsulfanyl)-pyridine-2,6-dicarboxylic acid] | ~0.254 µM | 
12 | N=C1NC(=O)C(=Cc2ccc(O)c(C(=O)NCCSc3cc(C(=O)O)nc(C(=O)O)c3)c2)S1 [compound 16a, 4-{2-[2-hydroxy-5-(2-imino-4-oxo-thiazolidin-5-ylidenemethyl)-benzoylamino]-ethylsulfanyl}-pyridine-2,6-dicarboxylic acid] | ~8.2 µM and ~15.5 µM | 
13 | Nc1c(S(=O)(=O)O)cc(Nc2ccc(Nc3nc(Cl)nc(Nc4ccccc4S(=O)(=O)O)n3)c(S(=O)(=O)O)c2)c2c1C(=O)c1ccccc1C2=O [Cibacron Blue] |  | inhibition at 3 µM [3]: 50 to 70%; inhibition at 10300 µM [4]: 50 to 70%; inhibition at 15.5 µM [5]: 50 to 60%; inhibition at 2580 µM ([1]; read-out: inhibition of DHPR, positive control): 70 to 80%; inhibition at 10.32 µM [6]: 70 to 80%
